# Measurements reported in US20050282863A1, “Novel-N substituted dihydrobenzothiepino, dihydrobenzoxepino and tetrahydro benzocyclohepta indoles as selective estrogen receptor modulators” (Council of Scientific & Industrial Research, priority 2004, published 2005).
# Like-named read-outs stand apart in the source and are kept apart here.
# Legend:
# [1] = molecular target: T1, estrogen receptors (Rattus norvegicus, UniProt P06211); test: Relative binding affinity (RBA) to estrogen receptors, 3H-estradiol competition assay; set-up: key: % of 17-beta-estradiol binding affinity (estradiol = 100); details: relative to 17-beta-estradiol (=100, percentage value); rat uterine cytosol, 3H-E2, 18 hrs at 4° C.
# T1 construct: Aliquot of uterine cytosol (200 μl; 2 uteri per ml) prepared in TEA buffer; from tissue; host or cells: uterine cytosol of immature estradiol-primed 20-21 day old rats
# T1 sequence (P06211 1-600): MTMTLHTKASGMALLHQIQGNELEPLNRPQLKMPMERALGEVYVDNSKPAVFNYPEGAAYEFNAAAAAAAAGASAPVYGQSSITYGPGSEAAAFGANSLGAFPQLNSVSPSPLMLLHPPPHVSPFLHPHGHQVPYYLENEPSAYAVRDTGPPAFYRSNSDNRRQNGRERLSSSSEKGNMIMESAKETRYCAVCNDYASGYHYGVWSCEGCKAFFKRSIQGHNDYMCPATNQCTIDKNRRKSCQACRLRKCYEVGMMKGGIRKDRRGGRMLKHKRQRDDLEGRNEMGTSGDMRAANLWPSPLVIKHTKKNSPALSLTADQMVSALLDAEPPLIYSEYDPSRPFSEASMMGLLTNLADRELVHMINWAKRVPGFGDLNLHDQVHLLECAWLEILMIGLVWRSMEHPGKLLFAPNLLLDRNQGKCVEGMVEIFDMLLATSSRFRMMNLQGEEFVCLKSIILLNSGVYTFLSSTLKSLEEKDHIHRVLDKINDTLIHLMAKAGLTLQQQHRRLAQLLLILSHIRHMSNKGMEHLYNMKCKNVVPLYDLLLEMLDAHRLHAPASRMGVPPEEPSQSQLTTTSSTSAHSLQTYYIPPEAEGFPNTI
# Procedure: The relative binding affinity (RBA) of the compounds for estrogen receptor is determined by competition assay, employing ^3H-estradiol (^3H-E2) as the radioligand. The test ligands and ^3H-E2 are incubated at 4° C. with cystol estrogen receptors obtained from uteri of immature estradoil-primed (1 μg/rat 24 h before autopsy) 20-21 days old rats. Aliquot of uterine cytosol (200 μl; 2 uteri per ml) prepared in TEA buffer (10 mM Tris, 1.5 mM EDTA, 0.02% sodium azide, pH 7.4) are incubated in duplicate with a fixed concentration of ^3H-E2 in the absence or presence of various concentrations of the competitor substance dissolved in 30 μl of the TEA buffer containing DMF as co-solvent (final concentration of DMF in the incubation mixture never exceeded 5%) for 18 hrs at 4° C. At the end of this period, dextran coated charcoal (5% Norit 0.5% dextran) suspension in 100 μl of TEA buffer is added to each tube, briefly vortexed and allowed to stand for 15 minutes at 4° C. The mixture is centrifuged at 800 g for 10 minutes and the supernatants counted for radioactivity in 10 ml of a dioxane-based scintillation fluid. RBA of the text compound is computed from a graph plotted between percent bound radioactivity verses log concentration of the test substance. […] This when multiplied with 100 gives the percentage value designated as RBA.
# [2] = tested on: MCF-7 cells; test: Antiproliferative/cytotoxic activity in cultured MCF-7 cells (SRB assay); type: cell-based; details: Homo sapiens, MCF7, 48 h, MCF-7, 48 h
# Procedure: The procedure is based on the following methods: New calorimetric assay for anticancer drug screening, Skehan et al., J Natn Cancer Inst, 82,1107, 1990 and Feasibility of a high-flux anticancer drug screen using a diverse panel of cultured human tumor cell lines, J Natn Cancer Inst, 83,757, 1991.
# A fully confluent flask of MCF-7 cells in trypsinized and 10^4 cells/well are plated in a 96 welled flat bottomed plate in 200 μl Minimum Essential Medium (MEM), pH 7.4 and allowed to attach for 24 h at 37° C. in a humidified CO2 incubator. Subsequently, the compound of invention dissolved in DMSO or ethanol is added at a specified concentration and further incubated for 48 h as before. The cells are then fixed in 50 μl cold 50% TCA and incubated for 1 h at 4° C. The supernatant is discarded and the plate is washed five times with deionized water and air-dried. 100 μl of 0.4% (w/v) Sulforhodamine B (SRB) in 1% acetic acid is added to each well and incubated at room temperature for 30 minutes. Unbound SRB is removed by five washes with chilled 1% acetic acid and the plate is air-dried. 200 μl of unbuffered 10 mM Tris base is added to solublize the bound stain for 5 minutes at room temperature and O.D. is read at 560 nm in a plate reader. The graph is plotted between O.D. and concentration and LC50 is calculated with respect to tamoxifen, which is used as a positive control.
# [3] = tested on: chick fetal bones in culture; test: Inhibition in PTH-induced resorption of 45Ca from chick fetal bones in culture (antiresorptive activity in vitro); type: cell-based; details: Gallus gallus, 96 h, 100 μM; PTH-induced 45Ca resorption, 96 h culture; read-out: T/C ratio
# Procedure: 5 μl of each concentration are used for evaluation of antiresorptive activity in vitro. In control experiments, 5 μl of appropriate solvent is used in lieu of the test compound. Femur bones are isolated from chick embryos on day 11 post-ovulation. The adhering soft connective tissue is completely removed. Each femur bone is then placed in a drop of phosphate buffered saline (PBS) and is transferred to BGJb culture medium containing ^45CaCl2 and incubated for 2 h. Labeled femur bones are washed 2-3 times with PBS and transferred to BGJb medium containing parathyroid hormone and cultured for 96 h in the presence or absence of the compound of invention or the vehicle in BGJb medium. Contralateral femur of each fetus serves as corresponding control. Culture medium with the respective treatment in each well is changed after 48 h. On termination of the culture at 96 h, bones are transferred to 0.1 N HCl for 24 h. Radioactivity due to ^45Ca in the spent medium collected at 48 and 96 h of culture and HCl extract at 96 h of culture is quantified by Liquid Scintillation Spectrophotometer in 10 ml of the scintillation fluid. Bone resorbing activity is expressed as percentage of ^45Ca released into the culture medium and the effect of the compound of invention as percent of the corresponding contra-lateral control or T/C ratio as shown below: [formula]
# Appropriate solvents are selected from solvents like water, physiological saline, phosphate buffered saline, phosphate buffer, DMSO alone or in a suitable combination thereof.
# [4] = tested on: adult female rats; test: Post-coital antifertility efficacy in adult female rats; type: in vivo, rat; details: oral
# Source text: Adult female rats are caged overnight with coeval males of proven fertility and their vaginal smears are checked on the following morning. The day of presence of spermatozoa in the vaginal smear is taken as day 1 of pregnancy. Mated rats are isolated and randomized into various treatment groups and treated orally with the compound of invention or the vehicle on days 1-7/1-5 post-coitum. Animals of all the groups are autopsied on day 10 post-coitum and number and status of corpora lutea and implantation sites in each rat are recorded. The compounds of the present invention are considered active if there is complete absence of implantations in the uterus of all rats, in comparison to presence of normal implantations in the uterus of rats of vehicle control group.
# [5] = tested on: immature ovariectomized rats; test: Estrogen agonistic activity: increase in uterine weight in immature ovariectomized rats; type: in vivo, rat; details: 3 days, percent of ovariectomized + vehicle group; for change in vivo at 3 mg/kg / change in vivo at 10 mg/kg: Rattus norvegicus, 72 h
# Procedure: Twenty-one-day-old immature female rats are bilaterally ovariectomized under light ether anaesthesia and, after post-operative rest for 7 days, are randomized into different treatment groups. Each rat receives the compound of the invention once daily for 3 consecutive days on days 28-30 of age. A separate group of animals receiving only the vehicle for similar duration serves as control. A autopsy 24 h after the last treatment on day 31 of age, vaginal smear of each rat is taken and uterus is carefully exised, gently blotted, weighed and fixed for histology and histomorphometry using image analysis. Premature opening of vagina, cornification of vaginal epitelium, increase in uterine fresh weight, total uterine and endometrial area and uterine luminal epithelial cell height are taken as parameters for evaluation of estrogen agonistic activity in comparision to rats of vehicle control group.
# [6] = tested on: immature ovariectomized rats; test: Estrogen antagonistic activity: inhibition in 17α-ethynylestradiol induced uterine weight gain in immature ovariectomized rats; type: in vivo, rat; details: 3 days; for inhibition in vivo at 10 mg/kg/day: Rattus norvegicus, 72 h, read-out: Percent inhibition in 17α-ethynylestradiol induced uterine weight gain
# Procedure: Twenty-one-day-old immature female rats are bilaterally ovariectomized under light ether anaesthesia and after post-operative rest for 7 days, are randomized into different treatment groups. Each rat receives the compounds of the invention and 0.02 mg/kg dose of 17-alfa-ethynylestradiol in 10% ethanol-distilled water once daily for 3 consecutive days on days 28-30 of age. A separate group of animals receiving only 17-alfa-ethynylestradiol (0.02 mg/kg) in 10% ethanol-distilled water for similar duration are used for comparison. At autopsy on day 31 of age, vaginal smear of each rat is taken and uterus is carefully excised, gently blotted, weighed and fixed for histology and histomorphometry using image analysis. Inhibition in 17-alfa-ethynylestradiol-induced premature opening of vagina, cornification of vaginal epithelium, increase in uterine fresh weight, total uterine and endometrial area and uterine luminal epithelial cell height are taken as parameters for evaluation of estrogen antagonistic activity.
# [7] = daily dose 10 mg/kg, days 1-7 post-coitum
# [8] = daily dose 10 mg/kg with 0.02 mg/kg 17-alfa-ethynylestradiol
Structure (SMILES),RBA [1],"CC50 ([2]; read-out: LC50, Test-1) [µM]",activity at 100 µM [3] [%],"% Efficacy [4, 7]",change in vivo at 3 mg/kg ([5]; daily dose 3 mg/kg) [%],"CC50 ([2]; read-out: LC50, Test-4) [µM]",other results
"c1ccc2c(c1)SCCc1c-2n(CCCCCN2CCCC2)c2ccccc12 [Example number 12, 12-[5-(Pyrrolidine-1-yl)pentyl]-6,7-dihydro-12H-benzothiepino [5,4-b]indole]",0.88,63,78,Inactive,3.4,,
"CCCCN(C)CCCCCn1c2c(c3ccccc31)CCSc1ccccc1-2.O=C(O)/C=C/C(=O)O [Example number 16, 12-[5-(N-butylmethylamino)pentyl]-6,7-dihydro-12H-benzothiepino [5,4-b]indole fumaric acid Salt]",<0.001,,,,,,"Percent inhibition in 17α-ethynylestradiol induced uterine weight gain [6, 8]: 2.00%; Percent increase in uterine weight ([5]; daily dose 10 mg/kg): 2.00%"
"Oc1ccc2c(c1)SCCc1c-2n(CCCCCN2CCCC2)c2ccc(O)cc12 [Example number 36, 3,9-Dihydroxy-12-[5-(pyrrolidine-1-yl)pentyl]-6,7-dihydro-12H-benzothiepino [5,4-b]indole]",<0.001,,118,,,60,
"c1ccc2c(c1)SCCc1c-2n(CCCN2CCCCC2)c2ccccc12 [Example number 7, 12-[3-(Piperidine-1-yl)propyl]-6,7-dihydro-12H-benzothiepino [5,4-b]indole]",,46,,Inactive,24.6,,"inhibition in vivo at 10 mg/kg/day [6, 8]: 15.4%; change in vivo at 10 mg/kg ([5]; daily dose 10 mg/kg): 109%"
"c1ccc2c(c1)OCCc1c-2n(CCCCCN2CCCCC2)c2ccccc12 [Example number 49, 12-[5-(Piperidine-1-yl)pentyl]-6,7-dihydro-12H-benzoxepino[5,4-b]indole]",,,63,,,,"responders at 10 mg/kg ([4]; Rattus norvegicus, 240 h, daily dose 10 mg/kg, days 1-7 post-coitum): 100%; % Efficacy ([4]; daily dose 5 mg/kg, days 1-5 post-coitum): Inactive"
"Oc1ccc2c(c1)SCCc1c-2n(CCCCCN2CCCCC2)c2ccc(O)cc12 [Example number 35, 3,9-Dihydroxy-12-[5-(piperidine-1-yl)pentyl]-6,7-dihydro-12H-benzothiepino [5,4-b]indole]",<0.001,,99,Inactive,,40,
"CCCCN(C)CCCCCn1c2c(c3ccccc31)CCSc1ccccc1-2.O=C1O[C@H]([C@@H](O)CO)C(O)=C1O [Example number 15, 12-[5-(N-butylmethylamino)pentyl]-6,7-dihydro-12H-benzothiepino [5,4-b]indole ascorbic acid salt]",,,,,,,"Percent inhibition in 17α-ethynylestradiol induced uterine weight gain ([6]; daily dose 1 mg/kg with 0.02 mg/kg 17-alfa-ethynylestradiol): 10.00%; Percent inhibition in 17α-ethynylestradiol induced uterine weight gain ([6]; daily dose 3 mg/kg with 0.02 mg/kg 17-alfa-ethynylestradiol): 23.00%; Percent inhibition in 17α-ethynylestradiol induced uterine weight gain [6, 8]: 15.00%; Percent increase in uterine weight ([5]; daily dose 1 mg/kg): 11.00%; Percent increase in uterine weight ([5]; daily dose 3 mg/kg): 15.00%; Percent increase in uterine weight ([5]; daily dose 10 mg/kg): 11.50%"
"Oc1ccc2c(c1)SCCc1c-2n(CCCCCN2CCCCC2)c2ccccc12 [Example number 24, 3-Hydroxy-12-[5-(piperidine-1-yl)pentyl]-6,7-dihydro-12H-benzothiepino [5,4-b]indole]",10.75,,78,Inactive,,27,
"c1ccc2c(c1)OCCc1c-2n(CCCCCCN2CCCCC2)c2ccccc12 [Example number 51, 12-[6-(Piperidine-1-yl)hexyl]-6,7-dihydro-12H-benzoxepino[5,4-b]indole]",0.059,22.3,,Inactive,21.9,,"CC50 ([2]; read-out: LC50, Test-3): 12.8 µM; inhibition in vivo at 10 mg/kg/day [6, 8]: 14%; change in vivo at 10 mg/kg ([5]; daily dose 10 mg/kg): 20%"
